Consider four molecules from patent publication US12599645B2, “Antibodies which bind to lysophosphatidic acid receptor 1 (LPAR1)” (DJS ANTIBODIES LTD, priority 2021, dated 2026).

Read-outs that look alike come from different tables or passages of the source.

The subject of one data set is diabetic nephropathy. The settings on record: 8 weeks, cited from earlier work.
The subject of data set [1] is renal fibrosis after UUO surgery. The data set is described as follows: Unilateral ureteral obstruction (UUO) efficacy model of renal fibrosis. It is filed as in vivo, Hartley guinea pigs. The method, then:
Unilateral ureteral obstruction (UUO) is a well-characterized disease model for renal fibrosis. The UUO model encompasses key pathophysiological features of chronic kidney disease; tubular necrosis and inflammatory cell infiltration within a relatively short period.
Two unilateral ureteral obstruction (UUO) model efficacy studies were carried out in six-week old female Hartley guinea pigs. On Day 0, UUO surgery was performed. BMS-986020 was administered orally at a dose level of 30 mg/kg in a volume of 5 mL/kg twice daily at from Day −1 to 9. Isotype control and anti-LPAR1 antibody was intraperitoneally administered at a dose level of 6 mg/kg (low) or 20 mg/kg (high) in a volume of 10 mL/kg at Day −1, Day 0, Day 3 and Day 6. The viability, clinical signs, behaviour and individual body weight was monitored daily.
The animals were sacrificed at Day 10. The ligated left kidney and right kidney weight were measured at sacrifice.
Hydroxyproline is an amino acid, making up around 14% of collagen and acts as an important indicator of the severity of fibrosis. To quantify kidney hydroxyproline content, frozen posterior right section of left kidney samples were processed by an alkaline-acid hydrolysis method. AC buffer (2.2M acetic acid/0.48M citric acid) was added to the samples, followed by centrifugation to collect the supernatant. A standard curve of hydroxyproline was constructed with serial dilutions of trans-4-hydroxy-L-proline (Sigma-Aldrich, USA) starting at 16 μg/mL. The prepared samples and standards were mixed with chloramine T solution (Nacalai Tesque Inc., Japan) and incubated for 25 minutes at room temperature. The samples were then mixed with Ehrlich's solution and heated at 65° C. for 20 minutes to develop the colour. After samples were cooled on ice and centrifuged to remove precipitates, the optical density of each supernatant was measured at 560 nm. The concentrations of hydroxyproline were calculated from the hydroxyproline standard curve. Protein concentrations of kidney samples were determined using a BCA protein assay kit (Thermo Fisher Scientific, USA) and used to normalize the calculated hydroxyproline values. Kidney hydroxyproline contents were expressed as μg per mg protein.
The left kidney was fixed in Bouin's solution and embedded in paraffin. For PAS staining, sections were cut from paraffin blocks and stained with Schiff's reagent (FUJIFILM Wako pure chemical corporation, Japan) according to the manufacturer's instructions. To visualize collagen deposition, kidney sections were stained using picro-Sirius red solution (FUJIFILM Wako pure chemical corporation). For quantification of interstitial and medulla fibrosis area, bright field images in the corticomedullary region were captured using a digital camera (DFC295) at 200-fold magnification, and the positive areas in 5 fields/section were measured using ImageJ software (National Institute of Health, USA).

The next data set deals with LPAR1 (Homo sapiens, UniProt Q92633). The data set is described as follows: BRET assay (G protein activation and βArrestin 2 biosensors). It is filed as cell-based. Also on record: expressed in transfected cells; host or cells: HEK293 (transient, PEI). The method, then: Using polyethylenimine (PEI) transfection agent at a 3:1 ratio, HEK293 cells were co-transfected in suspension with hLPAR1 and one of the following biosensors: G protein activation sensors (Gαi2, Gα13, and Gαq) and the βArrestin 2-PM recruitment biosensor (+GRK2). Cells were directly seeded in 96-well plates immediately following transfection at a density of 35,000 cells/well. 48 hours post-transfection, BRET experiments were performed in both agonist and allosteric/antagonist mode. Using a plate washer, culture medium was aspirated and replaced with 30 μl of Hank's Balanced Salt Solution buffer (HBSS). Plates were equilibrated at room temperature for 60 minutes. For agonist testing, serial dilutions of the antibodies were performed in PBS and then added to each well. Antibodies were assayed at 12 concentrations in technical duplicates. Small molecules were added to each relevant well. Small molecules were assayed at 22 concentrations with each biosensor. Cells were then incubated with the antibodies or small molecules at room temperature for 60 or 10 minutes, respectively. 10 μl of 10 μM e-Coelenterazine Prolume Purple (Nanolight) was then added to each well. Cells were incubated at room temperature for an additional 10 minutes. BRET readings were then collected with a 0.4 sec integration time on a plate reader (filters: 400 nm/70 nm, 515 nm/20 nm). For allosteric testing (after agonist testing), an EC75 of the endogenous ligand (oleoyl-LPA) was added to each well already containing antibody or small molecule. Cells were incubated at room temperature for an additional 10 minutes. BRET readings were then collected with a 0.4 sec integration time on a plate reader (filters: 400 nm/70 nm, 515 nm/20 nm). BRET signals were determined by calculating the ratio of light emitted by GFP-acceptor (515 nm) over light emitted by luciferase-donor (400 nm). All BRET ratios were standardized with pre-established BRET values for positive and negative controls. The standardized BRET ratio is referred to as universal BRET (uBRET). Resulting dose-response curves were fitted using the three- or four-parameter logistic non-linear regression model in GraphPad Prism 9.
The inhibition characteristics of Antibody 12 were investigated by Bioluminescence Resonance Energy Transfer (BRET, method 1.15) and compared to a small molecule LPAR1 inhibitor of the prior art (BMS-986020), see FIG. 13. The upper lines are values recorded with LPA present and the lower lines are values recorded with LPA not present. […] This can only happen if the ligand (LPA) is also interacting with the receptor at the same time to enable some signalling. […]

The subject of data set [2] is idiopathic pulmonary fibrosis. The settings on record: cited from earlier work.
For data set [3], the system named is hepatic bile acid efflux transporters (e.g., BSEP, MRP3 and MRP4). The settings on record: cited from earlier work.
For data set [4], the target named is T1, human LPAR1 (Homo sapiens, UniProt Q92633, N35A).
T1 construct: HA; expressed in transfected cells; host or cells: CHO-K1 (transient)
The data set is described as follows: In vitro epitope analysis: transient-transfection CIFAT on human LPAR1 with residue substitutions to alanine. The following applies: human LPAR1 position 35 (N, N-terminus) substituted to alanine; binding of mAb with VH SEQ ID NO: 369, VL SEQ ID NO: 39. It counts as binding. Here is the method:
(§1) CHO-K1 cells were seeded in clear 96-well plates at 20,000 cells per 200 μL full growth medium and incubated for 24 hours at 37° C. The following day, in a sterile tube, 0.0309 uL/well PEI (Generon, MW 160,000) was diluted into 10 uL/well transfection medium (DMEM supplemented with 2 mM L-glutamine and Penicillin-Streptomycin). The diluted PEI was added to 100 ng/well DNA encoding the target protein (human LPAR1 (SEQ ID NO: 62) unless otherwise stated), before vortexing immediately and incubating the mixture for 10 minutes at room temperature. 200 μL/well full growth medium was added to the PEI-DNA mixture, then medium in wells was taken off and 200 ul full growth medium/PEI/DNA mixture was added in the wells of the adherent cell plate. […] After washing and cell fixation with 4% PFA, the binding of the antibodies was detected using a goat anti-human Alexa Fluor 488 detection antibody (Invitrogen), incubated for 1 hour at room temperature. Fluorescence at 488 nm was measured using a BMG LABTECH ClarioStar plate reader and microscopy images were taken at 10× magnification.
(§2) Based on the epitope analysis presented in FIGS. 3 and 4, constructs were designed to test the important residues/interaction regions predicted in silico. […] CHO-K1 cells were transiently transfected with these plasm ids and the binding of an anti-LPAR1 mAb assessed to each of these receptor variants using protocol 1.11. […]

The target in data set [5] is T2, human LPAR1 (Homo sapiens, UniProt Q92633, Q286A).
T2 construct: HA; expressed in transfected cells; host or cells: CHO-K1 (transient)
The data set is described as above. It is filed as binding. The settings on record: human LPAR1 position 286 (Q, ECD3) substituted to alanine. The method, then: as §1, §2

Where [6] appears, read: Study 1, BMS-986020 30 mg/kg oral twice daily, antibody 20 mg/kg i.p., Day 10.

Sequence of LPAR1 (Q92633 whole entry): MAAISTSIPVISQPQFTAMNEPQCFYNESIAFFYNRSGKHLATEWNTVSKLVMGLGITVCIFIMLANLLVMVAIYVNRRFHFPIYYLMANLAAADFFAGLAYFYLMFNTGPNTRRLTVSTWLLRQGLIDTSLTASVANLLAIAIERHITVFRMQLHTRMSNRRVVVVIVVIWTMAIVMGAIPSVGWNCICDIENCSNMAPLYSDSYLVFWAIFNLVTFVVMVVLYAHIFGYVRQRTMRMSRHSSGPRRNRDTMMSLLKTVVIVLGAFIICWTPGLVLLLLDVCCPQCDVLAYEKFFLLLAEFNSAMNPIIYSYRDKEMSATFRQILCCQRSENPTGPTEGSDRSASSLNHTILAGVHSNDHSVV
T1 sequence (Q92633 whole entry N35A): as the sequence (Q92633 whole entry) above, with N35A counted along it
T2 sequence (Q92633 whole entry Q286A): as the sequence (Q92633 whole entry) above, with Q286A counted along it

Consider `Cc1noc(-c2ccc(-c3ccc(CC(=O)O)cc3)cc2)c1NC(=O)O[C@H](C)c1ccccc1` [AM095], for which, in the data set with diabetic nephropathy (STZ-induced (early disease model), Lee J H et al. (2019)), the “24 h albuminuria vs untreated controls, reduction” value is approximately 30% reduction.
With `Cc1noc(-c2ccc(-c3ccc(C4(C(=O)O)CC4)cc3)cc2)c1NC(=O)O[C@H](C)c1ccccc1` [BMS-986020], in data set [1] (setting [6]), the “cortical fibrosis (histological picrosirius staining)” value was “reduced cortical fibrosis” and the kidney hydroxyproline result is given as “No observable difference”. In addition, the histological picrosirius staining result in data set [1] (Study 2) was “No observable difference”. In data set [1] (Study 2, BMS-986020 30 mg/kg oral vs vehicle, antibody 20 mg/kg (high) i.p. vs isotype antibody), the kidney hydroxyproline result is recorded as “trend towards reduced hydroxyproline”. For the same molecule, the mode of inhibition result on LPAR1 (G13 biosensor) was “competitive inhibitor”. Further, the inhibition at LPAR1 (interaction of G-protein G13 with the GPCR, in the presence of LPA) was 100%. For the same molecule, the hepatobiliary toxicity entry in data set [2] (compound-specific, not mediated via antagonism of LPAR1) is reported as “off-target hepatobiliary toxicity”. The “efficacy in patients with idiopathic pulmonary fibrosis” value in data set [2] (human, in vivo) was “showed efficacy”. Also, the “binding to hepatic bile acid efflux transporters” value in data set [3] is on record as “off-target binding”.
In the case of `Cc1noc(-c2ccc(CSCCC(=O)O)cc2)c1NC(=O)OC(C)c1ccccc1Cl` (stereo not shown) [Ki16425], the “24 h albuminuria vs untreated controls, reduction” value in the data set on diabetic nephropathy (db/db (moderate model), Li et al. (2017)) is on record as approximately 30%.

B1: anti-LPAR1 mAb: mAb of the in vitro epitope analysis; VH of SEQ ID NO: 369 and VL of SEQ ID NO: 39 (antibody, V domains shown)
VH: QVQLVQSGSELKKPGASVKVSCKASGYTFTSSGISWVRQAPGQGLEWMGEILPRSGYTNYNQGFTGRFVFSADKSVSTAYLQISSLKAEDTAVYYCARDFASARYAMDYWGQGTTVTVSS
VL: SIQMTQSPSSLSASVGDRVTITCQASQSVRYNVAWYQQKPGKAPKLLIYYASNRYTGVPSRFSGSGSGTDFTFTISSLQPEDIATYFCQHHYSSPLTFGGGTKLEIK
modifications: REGION 1..120: note = >huVH4_Q61A97A99G104
For the molecule B1, the Epitope residue result in the data set with human LPAR1 [4] and with human LPAR1 [5] was “Inconclusive” throughout.

Broadly, the inhibition is the change of the read-out against control, counted positive when it falls.
